In publication PMC5218480 (PLoS ONE, 2017):

System: MV-4-11 cells
Assay: Gene expression microarray analysis (Affymetrix PrimeView) and GSEA
Type: cell-based, human
Design: RFU PODN (11730768_x_at) / Fold change /veh PODN (11730768_x_at) / RFU LINC00158 (11744669_a_at) / Fold change /veh LINC00158 (11744669_a_at) / RFU DUSP10 (11751237_a_at) / Fold change /veh DUSP10 (11751237_a_at) / RFU ID3 (11757404_x_at) / Fold change /veh ID3 (11757404_x_at) / RFU PLEKHG5 (11737974_s_at) / Fold change /veh PLEKHG5 (11737974_s_at) / RFU LRRC4B (11730491_at) / Fold change /veh LRRC4B (11730491_at) / RFU GIMAP4 (11747438_a_at) / Fold change /veh GIMAP4 (11747438_a_at) / RFU KRT8 (11758183_x_at) / Fold change /veh KRT8 (11758183_x_at) / RFU CNN1 (11734310_a_at) / Fold change /veh CNN1 (11734310_a_at) / RFU VPS37D (11726825_at) / Fold change /veh VPS37D (11726825_at) / RFU C10orf10 (11716522_x_at) / Fold change /veh C10orf10 (11716522_x_at) / RFU KIR2DL2 /// KIR2DL4 /// KIR2DL5A /// KIR2DL5B /// KIR2DS1 /// KIR2DS2 /// KIR2DS3 /// KIR2DS4 /// KIR3DL3 /// KIR3DL3 /// KIR3DS1 (11738374_at) / Fold change /veh KIR2DL2 /// KIR2DL4 /// KIR2DL5A /// KIR2DL5B /// KIR2DS1 /// KIR2DS2 /// KIR2DS3 /// KIR2DS4 /// KIR3DL3 /// KIR3DL3 /// KIR3DS1 (11738374_at) / RFU C1QL1 (11718748_at) / Fold change /veh C1QL1 (11718748_at) / RFU TMPRSS4 (11747572_a_at) / Fold change /veh TMPRSS4 (11747572_a_at) / RFU HAMP (11756126_x_at) / Fold change /veh HAMP (11756126_x_at) / RFU RNFT2 (11725882_a_at) / Fold change /veh RNFT2 (11725882_a_at) / RFU NR4A2 (11747474_a_at) / Fold change /veh NR4A2 (11747474_a_at) / RFU ABCC12 (11746883_a_at) / Fold change /veh ABCC12 (11746883_a_at) / RFU TMEM136 (11760407_x_at) / Fold change /veh TMEM136 (11760407_x_at) / RFU CLDN22 /// WWC2 (11732394_at) / Fold change /veh CLDN22 /// WWC2 (11732394_at) / RFU HLA-DPB1 (11760878_x_at) / Fold change /veh HLA-DPB1 (11760878_x_at) / RFU SPINT1 (11716480_a_at) / Fold change /veh SPINT1 (11716480_a_at) / RFU GAP43 (11754022_s_at) / Fold change /veh GAP43 (11754022_s_at) / RFU A4GNT (11735810_at) / Fold change /veh A4GNT (11735810_at) / RFU PRB3 (11715151_x_at) / Fold change /veh PRB3 (11715151_x_at) / RFU TUBB4B (11761932_at) / Fold change /veh TUBB4B (11761932_at) / RFU CAPN14 (11732068_a_at) / Fold change /veh CAPN14 (11732068_a_at) / RFU TMCC2 (11721928_a_at) / Fold change /veh TMCC2 (11721928_a_at) / RFU IRGQ (11745062_a_at) / Fold change /veh IRGQ (11745062_a_at) / RFU FAM174B (11720279_a_at) / Fold change /veh FAM174B (11720279_a_at) / RFU TMPRSS4 (11748680_a_at) / Fold change /veh TMPRSS4 (11748680_a_at) / RFU FAM212B (11763350_a_at) / Fold change /veh FAM212B (11763350_a_at) / RFU PLEKHG5 (11743358_a_at) / Fold change /veh PLEKHG5 (11743358_a_at) / RFU ZSCAN30 (11745921_a_at) / Fold change /veh ZSCAN30 (11745921_a_at) / RFU CMKLR1 (11741424_a_at) / Fold change /veh CMKLR1 (11741424_a_at) / RFU LOC101060620 /// MAPK8IP1 (11723275_at) / Fold change /veh LOC101060620 /// MAPK8IP1 (11723275_at) / RFU SPTSSB (11747773_x_at) / Fold change /veh SPTSSB (11747773_x_at) / RFU PRSS12 (11739890_at) / Fold change /veh PRSS12 (11739890_at) / RFU BIN1 (11741810_x_at) / Fold change /veh BIN1 (11741810_x_at) / RFU WNT11 (11732464_a_at) / Fold change /veh WNT11 (11732464_a_at) / RFU C10orf10 (11716521_a_at) / Fold change /veh C10orf10 (11716521_a_at) / RFU C5orf56 (11738089_at) / Fold change /veh C5orf56 (11738089_at) / RFU CYB561 (11721691_x_at) / Fold change /veh CYB561 (11721691_x_at) / RFU ANKRD19P (11752326_a_at) / Fold change /veh ANKRD19P (11752326_a_at) / RFU OR2T12 /// OR2T33 /// OR2T8 (11738714_s_at) / Fold change /veh OR2T12 /// OR2T33 /// OR2T8 (11738714_s_at) / RFU VCAN (11748164_a_at) / Fold change /veh VCAN (11748164_a_at) / RFU JSRP1 (11732532_at) / Fold change /veh JSRP1 (11732532_at) / RFU KRTAP10-11 (11738290_x_at) / Fold change /veh KRTAP10-11 (11738290_x_at) / RFU MYO3A (11730013_a_at) / Fold change /veh MYO3A (11730013_a_at) / RFU EBF3 (11725865_a_at) / Fold change /veh EBF3 (11725865_a_at) / RFU CAMK2N1 (11719241_x_at) / Fold change /veh CAMK2N1 (11719241_x_at) / RFU C5orf56 (11738088_a_at) / Fold change /veh C5orf56 (11738088_a_at) / RFU OLFML3 (11715873_a_at) / Fold change /veh OLFML3 (11715873_a_at) / RFU LOC100653217 /// NTM (11731650_a_at) / Fold change /veh LOC100653217 /// NTM (11731650_a_at) / RFU MAPK11 (11762145_a_at) / Fold change /veh MAPK11 (11762145_a_at) / RFU FIZ1 (11724087_x_at) / Fold change /veh FIZ1 (11724087_x_at) / RFU OASL (11726364_x_at) / Fold change /veh OASL (11726364_x_at) / RFU SOX15 (11748057_x_at) / Fold change /veh SOX15 (11748057_x_at) / RFU CD79A (11719716_a_at) / Fold change /veh CD79A (11719716_a_at) / RFU HIST1H1D (11736915_at) / Fold change /veh HIST1H1D (11736915_at) / RFU CASKIN2 (11723855_a_at) / Fold change /veh CASKIN2 (11723855_a_at) / RFU LOC730098 (11760151_x_at) / Fold change /veh LOC730098 (11760151_x_at) / RFU OR4N2 (11742367_at) / Fold change /veh OR4N2 (11742367_at) / RFU PRRT2 (11749266_a_at) / Fold change /veh PRRT2 (11749266_a_at) / RFU SNX32 (11753110_a_at) / Fold change /veh SNX32 (11753110_a_at) / RFU CDHR5 (11726645_a_at) / Fold change /veh CDHR5 (11726645_a_at) / RFU RCAN1 (11760418_a_at) / Fold change /veh RCAN1 (11760418_a_at) / RFU FAM167A (11723789_a_at) / Fold change /veh FAM167A (11723789_a_at) / RFU FAM26E (11764081_at) / Fold change /veh FAM26E (11764081_at) / RFU ISYNA1 (11749810_s_at) / Fold change /veh ISYNA1 (11749810_s_at) / RFU ACY1 (11761880_at) / Fold change /veh ACY1 (11761880_at) / RFU 11764098_at / Fold change /veh 11764098_at / RFU SAMD14 (11745864_x_at) / Fold change /veh SAMD14 (11745864_x_at) / RFU NPB (11741838_a_at) / Fold change /veh NPB (11741838_a_at) / RFU TMPRSS6 (11731388_a_at) / Fold change /veh TMPRSS6 (11731388_a_at) / RFU KRTAP10-2 (11738614_at) / Fold change /veh KRTAP10-2 (11738614_at) / RFU ARHGAP8 /// PRR5-ARHGAP8 (11727945_x_at) / Fold change /veh ARHGAP8 /// PRR5-ARHGAP8 (11727945_x_at) / RFU KRTAP5-7 /// NADSYN1 (11734609_at) / Fold change /veh KRTAP5-7 /// NADSYN1 (11734609_at) / RFU RASL12 (11751679_a_at) / Fold change /veh RASL12 (11751679_a_at) / RFU CDKN2B (11736163_a_at) / Fold change /veh CDKN2B (11736163_a_at) / RFU PRF1 (11729649_at) / Fold change /veh PRF1 (11729649_at) / RFU, ZNF638 /// ZNF638-IT1 / Fold change vs veh, ZNF638 /// ZNF638-IT1 / RFU, PANK3 / Fold change vs veh, PANK3 / RFU, SH3YL1 / Fold change vs veh, SH3YL1 / RFU, ZEB2 / Fold change vs veh, ZEB2 / RFU, NRIP1 / Fold change vs veh, NRIP1 / RFU, PTTG1IP / Fold change vs veh, PTTG1IP / RFU, CAPN2 / Fold change vs veh, CAPN2 / RFU, MED14 / Fold change vs veh, MED14 / RFU, SNORA58 / Fold change vs veh, SNORA58 / RFU, C1orf63 / Fold change vs veh, C1orf63 / RFU, LRRFIP1 / Fold change vs veh, LRRFIP1 / RFU, NDUFAF7 / Fold change vs veh, NDUFAF7 / RFU, SLC12A2 / Fold change vs veh, SLC12A2 / RFU, IBTK / Fold change vs veh, IBTK / RFU, ESF1 / Fold change vs veh, ESF1 / Fold change vs veh, TMEM50B / RFU, TAOK1 / Fold change vs veh, TAOK1 / RFU, ACBD3 / Fold change vs veh, ACBD3 / RFU, TMA16 / Fold change vs veh, TMA16 / RFU, RWDD3 / Fold change vs veh, RWDD3 / RFU, BCAT1 / Fold change vs veh, BCAT1 / RFU, EDEM3 / Fold change vs veh, EDEM3 / RFU, TMEM33 / Fold change vs veh, TMEM33 / RFU, WDR75 / Fold change vs veh, WDR75 / RFU, AHCTF1 / Fold change vs veh, AHCTF1 / RFU, TFRC / Fold change vs veh, TFRC / RFU, ZDHHC17 / Fold change vs veh, ZDHHC17 / RFU, NOM1 / Fold change vs veh, NOM1 / RFU, ARL8B / Fold change vs veh, ARL8B / RFU, ZBTB11 / Fold change vs veh, ZBTB11 / RFU, TAMM41 / Fold change vs veh, TAMM41 / RFU, KIAA1704 /// LOC100996395 / Fold change vs veh, KIAA1704 /// LOC100996395 / RFU, ING1 / Fold change vs veh, ING1 / RFU, TRMT61B / Fold change vs veh, TRMT61B / RFU, FUBP3 / Fold change vs veh, FUBP3 / RFU, TP53 / Fold change vs veh, TP53 / RFU, TNKS2 / Fold change vs veh, TNKS2 / RFU, ZFP14 / Fold change vs veh, ZFP14 / RFU, ACTR2 / Fold change vs veh, ACTR2 / RFU, PPP3R1 / Fold change vs veh, PPP3R1 / RFU, PIK3R1 / Fold change vs veh, PIK3R1 / RFU, HNRNPA1 / Fold change vs veh, HNRNPA1 / RFU, RNF170 / Fold change vs veh, RNF170 / RFU, ZNF28 / Fold change vs veh, ZNF28 / RFU, RNGTT / Fold change vs veh, RNGTT / RFU, OGT / Fold change vs veh, OGT / RFU, BRD1 / Fold change vs veh, BRD1 / RFU, MARS / Fold change vs veh, MARS / RFU, ZNF655 / Fold change vs veh, ZNF655 / RFU, FAHD1 / Fold change vs veh, FAHD1 / RFU, BDP1 / Fold change vs veh, BDP1 / RFU, LRRCC1 / Fold change vs veh, LRRCC1 / RFU, ARID1A / Fold change vs veh, ARID1A / RFU, ZNF146 / Fold change vs veh, ZNF146 / RFU, ZNF330 / Fold change vs veh, ZNF330 / RFU, GPN3 / Fold change vs veh, GPN3 / RFU, C9orf123 / Fold change vs veh, C9orf123 / RFU, N4BP2L2 / Fold change vs veh, N4BP2L2 / RFU, ARFIP1 / Fold change vs veh, ARFIP1 / RFU, FAM179B / Fold change vs veh, FAM179B / RFU, BCL10 / Fold change vs veh, BCL10 / RFU, UHRF1BP1L / Fold change vs veh, UHRF1BP1L / RFU, BET1 / Fold change vs veh, BET1 / RFU, CNOT2 / Fold change vs veh, CNOT2 / RFU, ZNF268 / Fold change vs veh, ZNF268 / Fold change vs veh, ZNF507 / RFU, DGCR2 / Fold change vs veh, DGCR2 / RFU, WDSUB1 / Fold change vs veh, WDSUB1 / Fold change vs veh, HSP90B1 /// MIR3652 / RFU, ADSS / Fold change vs veh, ADSS / RFU, GK / Fold change vs veh, GK / RFU, ZNF148 / Fold change vs veh, ZNF148 / RFU, TAF9 / Fold change vs veh, TAF9 / RFU, SLC1A5 / Fold change vs veh, SLC1A5 / RFU, SLMO2 / Fold change vs veh, SLMO2 / RFU, ABCC4 / Fold change vs veh, ABCC4 / RFU, LOC101060439 /// RAP1B / Fold change vs veh, LOC101060439 /// RAP1B / RFU, RFX7 / Fold change vs veh, RFX7 / RFU, GTPBP10 / Fold change vs veh, GTPBP10 / RFU, CNEP1R1 / Fold change vs veh, CNEP1R1 / RFU, BIVM-ERCC5 /// ERCC5 / Fold change vs veh, BIVM-ERCC5 /// ERCC5 / RFU, ILF3 / Fold change vs veh, ILF3 / RFU 11762660_at / Fold change /veh 11762660_at / RFU VCAN (11757783_s_at) / Fold change /veh VCAN (11757783_s_at) / RFU DDX43 (11728927_at) / Fold change /veh DDX43 (11728927_at) / RFU KRT8 (11758188_x_at) / Fold change /veh KRT8 (11758188_x_at) / RFU NKD1 (11759106_at) / Fold change /veh NKD1 (11759106_at) / RFU SRD5A1 (11742802_a_at) / Fold change /veh SRD5A1 (11742802_a_at) / RFU TPSAB1 /// TPSB2 (11721975_s_at) / Fold change /veh TPSAB1 /// TPSB2 (11721975_s_at) / RFU GSTM3 (11746129_a_at) / Fold change /veh GSTM3 (11746129_a_at) / RFU IL23R (11737362_x_at) / Fold change /veh IL23R (11737362_x_at) / RFU TMEM51 (11727254_a_at) / Fold change /veh TMEM51 (11727254_a_at) / RFU PIWIL2 (11732686_x_at) / Fold change /veh PIWIL2 (11732686_x_at) / RFU ORM1 (11744905_x_at) / Fold change /veh ORM1 (11744905_x_at) / RFU CCDC152 (11743942_at) / Fold change /veh CCDC152 (11743942_at) / RFU ECM1 (11717891_a_at) / Fold change /veh ECM1 (11717891_a_at) / RFU IL23R (11748794_a_at) / Fold change /veh IL23R (11748794_a_at) / RFU TNFAIP8L3 (11732012_x_at) / Fold change /veh TNFAIP8L3 (11732012_x_at) / RFU MBOAT4 (11741988_at) / Fold change /veh MBOAT4 (11741988_at) / RFU 11764193_at / Fold change /veh 11764193_at / RFU TMEM53 (11763286_at) / Fold change /veh TMEM53 (11763286_at) / RFU MAGEB2 (11727129_at) / Fold change /veh MAGEB2 (11727129_at) / RFU TMEM200A (11744735_a_at) / Fold change /veh TMEM200A (11744735_a_at) / RFU CCDC152 (11751479_a_at) / Fold change /veh CCDC152 (11751479_a_at) / RFU FAM211A (11726209_a_at) / Fold change /veh FAM211A (11726209_a_at) / RFU RGS16 (11746705_a_at) / Fold change /veh RGS16 (11746705_a_at) / RFU VCAN (11755009_s_at) / Fold change /veh VCAN (11755009_s_at) / RFU RHOB (11743442_s_at) / Fold change /veh RHOB (11743442_s_at) / RFU RGS16 (11720943_a_at) / Fold change /veh RGS16 (11720943_a_at) / RFU RGS16 (11720944_at) / Fold change /veh RGS16 (11720944_at) / RFU, VPS4B / Fold change vs veh, VPS4B / RFU, CREB1 / Fold change vs veh, CREB1 / RFU, DNAJC13 / Fold change vs veh, DNAJC13 / RFU, GNAQ / Fold change vs veh, GNAQ / RFU, CDK5R1 / Fold change vs veh, CDK5R1 / RFU, ZRANB3 / Fold change vs veh, ZRANB3 / RFU, CUL4A / Fold change vs veh, CUL4A / RFU, CCNY / Fold change vs veh, CCNY / RFU, UFL1 / Fold change vs veh, UFL1 / RFU, COG3 / Fold change vs veh, COG3 / RFU, DIAPH2 / Fold change vs veh, DIAPH2 / RFU, SKA2 / Fold change vs veh, SKA2 / RFU, AFF3 / Fold change vs veh, AFF3 / RFU, LMF1 / Fold change vs veh, LMF1 / RFU, IPO11 / Fold change vs veh, IPO11 / RFU, DFFB / Fold change vs veh, DFFB / RFU, FOXP1 / Fold change vs veh, FOXP1 / RFU, CARD8 / Fold change vs veh, CARD8 / RFU, STRN3 / Fold change vs veh, STRN3 / RFU, ADK / Fold change vs veh, ADK / RFU, RASSF2 / Fold change vs veh, RASSF2 / RFU, WIPF1 / Fold change vs veh, WIPF1 / RFU, LARP1B / Fold change vs veh, LARP1B / RFU, RASA1 / Fold change vs veh, RASA1 / RFU, RB1 / Fold change vs veh, RB1 / RFU, PPFIA1 / Fold change vs veh, PPFIA1 / RFU, MAT2A / Fold change vs veh, MAT2A / RFU, CCT5 / Fold change vs veh, CCT5 / RFU, WDR92 / Fold change vs veh, WDR92 / RFU, CUX1 / Fold change vs veh, CUX1 / RFU, TTC7A / Fold change vs veh, TTC7A / RFU, TMEM135 / Fold change vs veh, TMEM135 / RFU, DEPTOR / Fold change vs veh, DEPTOR / RFU, CPM / Fold change vs veh, CPM / RFU, DNAJB6 / Fold change vs veh, DNAJB6 / RFU, CACNA2D3 / Fold change vs veh, CACNA2D3 / RFU, DTX4 / Fold change vs veh, DTX4 / RFU, TFCP2 / Fold change vs veh, TFCP2 / RFU, GMCL1 /// GMCL1P1 / Fold change vs veh, GMCL1 /// GMCL1P1 / RFU, AEBP2 / Fold change vs veh, AEBP2 / RFU, SNHG1 /// SNORD22 /// SNORD25 /// SNORD26 /// SNORD27 /// SNORD28 /// SNORD29 /// SNORD31 / Fold change vs veh, SNHG1 /// SNORD22 /// SNORD25 /// SNORD26 /// SNORD27 /// SNORD28 /// SNORD29 /// SNORD31 / Fold change (Aza/veh), C12orf56 (ProbeSet 11735607_a_at) / Fold change (ACY-1035/veh), C12orf56 (ProbeSet 11735607_a_at) / Fold change (Aza/veh), FGFR1OP (ProbeSet 11751329_s_at) / Fold change (ACY-1035/veh), FGFR1OP (ProbeSet 11751329_s_at) / Fold change (Aza/veh), VPS36 (ProbeSet 11739960_a_at) / Fold change (ACY-1035/veh), VPS36 (ProbeSet 11739960_a_at) / RFU SYPL1 (11715823_x_at) / Fold change /veh SYPL1 (11715823_x_at) / RFU IGFBP7 (11715501_s_at) / Fold change /veh IGFBP7 (11715501_s_at) / RFU REEP3 (11722064_at) / Fold change /veh REEP3 (11722064_at) / RFU IGLL1 (11728026_x_at) / Fold change /veh IGLL1 (11728026_x_at): dose or concentration left out as unconfirmed
Details: ProbeSet 11721611_a_at; LIST D

## Nc1ncn([C@@H]2O[C@H](CO)[C@@H](O)[C@H]2O)c(=O)n1 [azacitidine]
  RFU, IPO11: 64.89 RFU
